Measured values reported in patent US11541051B2, “Compositions and methods for treating CDK4/6-mediated cancer” (Icahn School of Medicine at Mount Sinai, priority 2016, dated 2023).
Entries after “also recorded” stand apart in the source; their conditions may differ.

Experiments:
Type in all cases: cell-based
CDK4/6 [1] = test: Characterization of CDK4/6 degraders/disruptors in various breast cancer and melanoma cells (summary, Examples 12 and 13)
Experimental: Specific exemplary abemaciclib-, ribociclib-, and palbociclib-based CDK4/6 degraders/disruptors were characterized in various different breast cancer and melanoma cells (Examples 12 and 13, FIGS. 10-23). […] This efficacy in suppressing CDK4/6 expression and CDK4/6 activity correlated with efficacy in inhibiting cancer cell proliferation.
(§1) Protein concentrations were determined by BCA from cell lysates and equal amounts of protein are loaded to a Bis-Tris 4-12% gel. Gels were run at 80 V for 4 h using 1× running buffer (25 mM Tris, pH 8.3, […] glycine, 0.1% SDS). Proteins were transferred to a nitrocellulose membrane for 2 h at 100 V using transfer buffer (25 mM Tris, pH 8.3, […] glycine, 20% methanol). Ponceau S staining (0.1% Ponceau S, 1% acetic acid) was used to confirm transfer of proteins to the membrane followed by blocking of the membrane for 30 min at room temperature using blocking buffer (5% dry nonfat milk, 0.1% Tween, 0.02% sodium azide in TBS). The blocked membrane is incubated with primary antibodies (1:1000 dilution) in blocking buffer at 4° C. overnight. When primary phosphor-antibodies were used, then the membrane is incubated with 5% BSA instead of milk. The membrane was washed three times, 10 min each, with wash buffer (0.1% Tween in TBS) followed by incubation with secondary HRP conjugated antibody (1:5000 dilution) in 2.5% dry nonfat milk, 0.1% Tween in TBS for 1 h at room temperature. The membrane was washed three times, 10 min each, with wash buffer (0.1% Tween in TBS). Membranes are incubated with ECL for 1 min and proteins are detected after exposure to a blue autoradiographic film.

CDK4/6 [2] = test: Western blot of CDK4, CDK6 and phospho-Rb in SK-MEL-2 or A375 melanoma cells treated with degraders (Example 12, FIG. 11); settings: SK-MEL-2 or A375 cells; 1 or 3 μM; 24 h
Experimental: (§2) Breast cancer cell lines (MCF7, T47D, and ZR-75-1) and melanoma cell lines (A375, SK-MEL-2, SK-MEL-30, and WM1382) were cultured in the presence of DMEM or RPMI supplemented with 10% FBS in the presence of penicillin and streptomycin.
as §1, with “The membrane was washed three times, 10 min each, with wash buffer (0.1% Tween in TBS) followed by incubation with secondary HRP conjugated antibody (1:5000 dilution) in 2.5% dry nonfat milk, 0.1% Tween in TBS for 1 h at room temperature. The membrane was washed three times, 10 min each, with wash buffer (0.1% Tween in TBS).” left out, “film. […]” for “film.”

CDK4/6 [3] = test: Western blot of CDK4, CDK6 and phospho-Rb in A375 melanoma cells treated with degraders (Example 12, FIGS. 12, 13, 16, 18); settings: 1 or 3 μM, 24 h
Experimental: as §2, §1
A375 melanoma cells (FIG. 13) were treated with 1 or 3 μM Ribociclib (RB), YX030-126, YX030-108, YX030-107, YX030-086, YX030-085 or XY028-133 for 24 h, then lysed and immunoblotted with antibodies to CDK4, CDK6, cyclin A, PLK1, phospho-Rb (pRb), and actin.
A375 melanoma cells (FIG. 16, panel A) were treated with 0.3 or 1 μM XY028-140, YX039-65, YX039-48, YX039-123, YX039-56, YX039-124 or YX039-147 for 24 h. A375 melanoma cells were treated with 1 or 3 μM XY028-140, YX039-56, YX039-65 or XY028-133 (FIG. 16, panel B). Cells were lysed and immunoblotted with antibodies to phospho-Rb (pRb), total Rb, PLK1, cyclin A, CDK4, CDK6, and actin.
A375 melanoma cells (FIG. 18) were treated with 1 or 3 μM XY028-133, YX044-18, YX044-22, XY028-140, YX044-19 or YX044-38 for 24 h, then lysed and immunoblotted with antibodies to phospho-Rb (pRb), total Rb, PLK1, cyclin A, CDK4, CDK6, and actin.

CDK4/6 [4] = test: Western blot of CDK4/6 and phospho-Rb in T47D breast cancer cells treated with degraders (Example 12, FIGS. 10 B, 17, 19); settings: 0.3 or 1 μM, 24 h
Experimental: as §2, §1
(§3) MCF7 breast cancer cells were treated with 1 or 5 μM XY019-095, XY019-098, XY019-0100, XY019-105A, XY019-105B, XY019-106, or XY019-108 for 24 h, then lysed and immunoblotted with antibodies to CDK4, CDK6, and actin (FIG. 10, panel A). […] T47D breast cancer cells were treated with 0.1, 0.3, 1, 3, 10, or 30 μM XY019-106 for 24 h, then lysed and immunoblotted with antibodies to phospho-Rb (pRB), CDK4, and actin (FIG. 10, panel B).
T47D breast cancer cells (FIG. 17) were treated with 0.3 or 1 μM XY028-140, YX039-48, YX039-123, YX039-56, YX039-124, YX039-65, YX039-147 or YX039-74 for 24 h, then lysed and immunoblotted with antibodies to phospho-Rb (pRb), total Rb, PLK1, cyclin A, CDK4, CDK6, and actin.
T47D breast cancer cells (FIG. 19) were treated with 0.3 or 1 μM XY028-133, YX044-18, YX044-22, XY028-140, YX044-19 or YX044-38 for 24 h, then lysed and immunoblotted with antibodies to phospho-Rb (pRb), total Rb, PLK1, cyclin A, CDK4, CDK6, and actin.

CDK4/6 [5] = test: Western blot of CDK4 and CDK6 in MCF7 breast cancer cells treated with degraders (Example 12, FIG. 10 A); settings: 1 or 5 μM, 24 h
Experimental: as §2, §1, §3

T47D breast cancer cells = test: Crystal violet staining (clonogenic assay) of T47D breast cancer cells (Example 13, FIGS. 22, 23); settings: 11 days
Experimental: Cells were cultured for 7-11 days in the presence of different compounds. Media with compound was replenished every two days. At the end of the experiment, media was aspirated and viable cells were stained with 0.5% crystal violet dye.

| Compound | suppression of both CDK4/6 expression and CDK4/6 activity (summary) (CDK4/6 [1]) | efficacy in inhibiting both CDK4/6 expression and CDK4/6 activity (decreased Rb phosphorylation) (CDK4/6 [2]) | efficacy in inhibiting both CDK4/6 expression and CDK4/6 activity (decreased Rb phosphorylation) (CDK4/6 [3]) | efficacy in inhibiting both CDK4/6 expression and CDK4/6 activity (decreased Rb phosphorylation) (CDK4/6 [4]) | suppression of CDK4/6 expression (CDK4/6 [5]) | inhibition of cancer cell proliferation compared with palbociclib (crystal violet staining) (T47D breast cancer cells; 0.003, 0.01 or 0.03 μM) | inhibition of cancer cell proliferation compared with palbociclib (crystal violet staining) (T47D breast cancer cells; 0.03, 0.1, 0.3, 1 or 3 μM) |
| --- | --- | --- | --- | --- | --- | --- | --- |
| CC(=O)c1c(C)c2cnc(Nc3ccc(N4CCN(C(=O)CCOCCC(=O)N[C@H](C(=O)N5C[C@H](O)C[C@H]5C(=O)NCc5ccc(-c6scnc6C)cc5)C(C)(C)C)CC4)cn3)nc2n(C2CCCC2)c1=O [XY028-003, (2S,4R)-1-((S)-2-(3-(3-(4-(6-((6-acetyl-8-cyclopentyl-5-methyl-7-oxo-7,8-dihydropyrido[2,3-d]pyrimidin-2-yl)amino)pyridin-3-yl)piperazin-1-yl)-3-oxopropoxy)propanamido)-3,3-dimethylbutanoyl)-4-hydroxy-N-(4-(4-methylthiazol-5-yl)benzyl)pyrrolidine-2-carboxamide] | especially effective in suppressing both CDK4/6 expression and CDK4/6 activity | efficacy of CDK4/6 degraders/disruptors, particularly XY019-106 and XY028-003 | efficacy of CDK4/6 degraders, particularly XY028-133, XY028-140, XY019-106 and XY028-003 |  |  |  |  |
| CC(=O)c1c(C)c2cnc(Nc3ccc(N4CCCN(C(=O)CNc5cccc6c5C(=O)N(C5CCC(=O)NC5=O)C6=O)CC4)cn3)nc2n(C2CCCC2)c1=O (centres unmarked) [YX044-19, 4-((2-(4-(6-((6-acetyl-8-cyclopentyl-5-methyl-7-oxo-7,8-dihydropyrido[2,3-d]pyrimidin-2-yl)amino)pyridin-3-yl)-1,4-diazepan-1-yl)-2-oxoethyl)amino)-2-(2,6-dioxopiperidin-3-yl)isoindoline-1,3-dione] |  |  |  | efficacy of CDK4/6 degraders, particularly XY028-140 and YX044-22 and YX044-19 |  |  |  |
| CC(=O)c1c(C)c2cnc(Nc3ccc(N4CCN(C(=O)CCOCCOCCOCCNc5cccc6c5C(=O)N(C5CCC(=O)NC5=O)C6=O)CC4)cn3)nc2n(C2CCCC2)c1=O (centres unmarked) [XY019-108, 4-((2-(2-(2-(3-(4-(6-((6-acetyl-8-cyclopentyl-5-methyl-7-oxo-7,8-dihydropyrido[2,3-d]pyrimidin-2-yl)amino)pyridin-3-yl)piperazin-1-yl)-3-oxopropoxy)ethoxy)ethoxy)ethyl)amino)-2-(2,6-dioxopiperidin-3-yl)isoindoline-1,3-dione] | especially effective in suppressing both CDK4/6 expression and CDK4/6 activity |  |  |  | especially effective in suppressing CDK4/6 expression even at 1 μM |  |  |
| CC(=O)c1c(C)c2cnc(Nc3ccc(N4CCN(C(=O)COCCOCCOCC(=O)N[C@H](C(=O)N5C[C@H](O)C[C@H]5C(=O)NCc5ccc(-c6scnc6C)cc5)C(C)(C)C)CC4)cn3)nc2n(C2CCCC2)c1=O [XY019-098, (2S,4R)-1-((S)-14-(4-(6-((6-acetyl-8-cyclopentyl-5-methyl-7-oxo-7,8-dihydropyrido[2,3-d]pyrimidin-2-yl)amino)pyridin-3-yl)piperazin-1-yl)-2-(tert-butyl)-4,14-dioxo-6,9,12-trioxa-3-azatetradecanoyl)-4-hydroxy-N-(4-(4-methylthiazol-5-yl)benzyl)pyrrolidine-2-carboxamide] | especially effective in suppressing both CDK4/6 expression and CDK4/6 activity |  |  |  | especially effective in suppressing CDK4/6 expression even at 1 μM |  |  |
| CC(=O)c1c(C)c2cnc(Nc3ccc(N4CCN(C(=O)COc5cccc6c5CN(C5CCC(=O)NC5=O)C6=O)CC4)cn3)nc2n(C2CCCC2)c1=O (centres unmarked) [YX039-123, 3-(4-(2-(4-(6-((6-acetyl-8-cyclopentyl-5-methyl-7-oxo-7,8-dihydropyrido[2,3-d]pyrimidin-2-yl)amino)pyridin-3-yl)piperazin-1-yl)-2-oxoethoxy)-1-oxoisoindolin-2-yl)piperidine-2,6-dione] | especially effective in suppressing both CDK4/6 expression and CDK4/6 activity |  |  | efficacy of CDK4/6 degraders, particularly XY028-140 and YX039-123 |  | inhibited cancer cell proliferation more effective that palbociclib at the same concentration | inhibited cancer cell proliferation more effective that palbociclib at the same concentration |
| CC(=O)c1c(C)c2cnc(Nc3ccc(N4CCN(C(=O)CNc5cccc6c5C(=O)N(C5CCC(=O)NC5=O)C6=O)CC4)cn3)nc2n(C2CCCC2)c1=O (centres unmarked) [XY028-140, 4-((2-(4-(6-((6-acetyl-8-cyclopentyl-5-methyl-7-oxo-7,8-dihydropyrido[2,3-d]pyrimidin-2-yl)amino)pyridin-3-yl)piperazin-1-yl)-2-oxoethyl)amino)-2-(2,6-dioxopiperidin-3-yl)isoindoline-1,3-dione] | especially effective in suppressing both CDK4/6 expression and CDK4/6 activity |  | efficacy of CDK4/6 degraders, particularly XY028-133, XY028-140, XY019-106 and XY028-003 | efficacy of CDK4/6 degraders, particularly XY028-140 and YX039-123; also recorded: efficacy of CDK4/6 degraders, particularly XY028-140 and YX044-22 and YX044-19 |  | inhibited cancer cell proliferation more effective that palbociclib at the same concentration | inhibited cancer cell proliferation more effective that palbociclib at the same concentration |
